What was measured:
[1] = target: T1, human adenosine A1 receptor (Homo sapiens, UniProt P30542); experiment: Inhibition binding assay, human adenosine A1 receptor membranes, [3H]DPCPX; conditions: 1 nM [3H]DPCPX, 25° C., 1 h; IC50 converted to Ki with Cheng-Prusoff; read-out: A1 pKi (converted)
T1 construct: expressed in transfected cells; host or cells: HEK293 cells infected with BacMam (the same paragraph also labels the preparation CHO-hA1)
T1 sequence (P30542 1-326): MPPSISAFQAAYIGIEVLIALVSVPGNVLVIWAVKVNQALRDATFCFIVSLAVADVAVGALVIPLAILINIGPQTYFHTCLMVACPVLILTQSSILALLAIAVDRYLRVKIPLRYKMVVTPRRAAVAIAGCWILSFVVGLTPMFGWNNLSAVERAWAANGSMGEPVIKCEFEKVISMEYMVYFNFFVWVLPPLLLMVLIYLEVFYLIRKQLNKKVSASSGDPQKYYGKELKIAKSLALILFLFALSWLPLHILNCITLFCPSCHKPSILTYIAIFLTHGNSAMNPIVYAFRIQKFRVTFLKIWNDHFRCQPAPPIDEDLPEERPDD
Method in brief: (§1)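 Membranes from BacMam-infected HEK293 cells (0.2 μg A2A, 1.4 μg A1) incubated 1 h at 25° C with test compound and 1 nM [3H]ZM241385 (A2A; 50 mM Tris-HCl pH 7.4) or [3H]DPCPX (A1; plus 100 mM NaCl, 10 mM MgCl2). Nonspecific: 1 μM CGS15943 or DPCPX. Filtration, scintillation; IC50 converted to Ki via Cheng-Prusoff.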

[2] = target: T2, human adenosine A2A receptor (Homo sapiens, UniProt P29274); experiment: Inhibition binding assay, human adenosine A2A receptor membranes, [3H]ZM241385; conditions: 1 nM [3H]ZM241385, HEK293-hA2A membranes, 25° C., 1 h; IC50 converted to Ki with Cheng-Prusoff; read-out: A2A pKi (converted)
T2 construct: expressed in transfected cells; host or cells: HEK293 cells infected with BacMam
T2 sequence (P29274 whole entry): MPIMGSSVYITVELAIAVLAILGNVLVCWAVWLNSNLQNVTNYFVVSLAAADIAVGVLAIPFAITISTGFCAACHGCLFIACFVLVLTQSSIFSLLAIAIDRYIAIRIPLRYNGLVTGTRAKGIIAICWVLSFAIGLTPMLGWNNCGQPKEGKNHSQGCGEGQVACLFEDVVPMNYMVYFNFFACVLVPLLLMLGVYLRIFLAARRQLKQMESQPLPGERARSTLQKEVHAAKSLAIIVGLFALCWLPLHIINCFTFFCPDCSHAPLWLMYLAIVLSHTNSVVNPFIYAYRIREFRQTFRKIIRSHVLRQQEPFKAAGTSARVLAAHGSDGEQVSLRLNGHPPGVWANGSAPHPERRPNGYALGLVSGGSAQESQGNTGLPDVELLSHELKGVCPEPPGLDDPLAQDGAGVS
Method in brief: as §1

Structure (SMILES) | Ki [1] [nM] | Ki [2] [nM]
Cc1cc(-c2c(-c3ccccc3)nc(N)n3c(=O)n(CCN4CCN(C)CC4)nc23)cc(C)n1 [Example 2-102, 5-amino-8-(2,6-dimethyl-4-pyridyl)-2-[2-(4-methylpiperazin-1-yl)ethyl]-7-phenyl-[1,2,4]triazolo[4,3-c]pyrimidin-3-one] | > 3160 | 126
COc1ccc(Cn2nc3c(-c4cc(C)nc(C)c4)c(-c4ccccc4)nc(N)n3c2=O)cc1 [Example 1-3, 5-amino-8-(2,6-dimethyl-4-pyridyl)-2-[(4-methoxyphenyl)methyl]-7-phenyl-[1,2,4]triazolo[4,3-c]pyrimidin-3-one] | 25.1 | 6.31
Cc1cc(-c2c(-c3ccccc3)nc(N)n3c(=O)n(CCNC(=O)OC(C)(C)C)nc23)cc(C)n1 [Example 2-14, tert-butyl N-[2-[5-amino-8-(2,6-dimethyl-4-pyridyl)-3-oxo-7-phenyl-[1,2,4]triazolo[4,3-c]pyrimidin-2-yl]ethyl]carbamate] | 794 | 100
Cc1cc(-c2c(-c3ccccc3)nc(N)n3c(=O)n(CCc4ccccn4)nc23)cc(C)n1 [Example 1-86, 5-amino-8-(2,6-dimethyl-4-pyridyl)-7-phenyl-2-[2-(2-pyridyl)ethyl]-[1,2,4]triazolo[4,3-c]pyrimidin-3-one] | 794 | 5.01
Cc1cc(-c2c(-c3ccc(F)cc3)nc(N)n3c(=O)n(Cc4ccc(C#N)cn4)nc23)cc(CO)n1 [Example 1-63, 6-[[5-amino-7-(4-fluorophenyl)-8-[2-(hydroxymethyl)-6-methyl-4-pyridyl]-3-oxo-[1,2,4]triazolo[4,3-c]pyrimidin-2-yl]methyl]pyridine-3-carbonitrile] | > 3980 | 631
Cc1cc(-c2c(N3CCCCC3)nc(N)n3c(=O)n(CCC(F)(F)F)nc23)cc(C)n1 [Example 3-2, 5-amino-8-(2,6-dimethyl-4-pyridyl)-7-(1-piperidyl)-2-(3,3,3-trifluoropropyl)-[1,2,4]triazolo[4,3-c]pyrimidin-3-one] | > 3160 | 6.31
Cc1cc(-c2c(-c3ccccc3)nc(N)n3c(=O)n(Cc4cccnc4-n4cccn4)nc23)cc(C)n1 [Example 1-19, 5-amino-8-(2,6-dimethyl-4-pyridyl)-7-phenyl-2-[(2-pyrazol-1-yl-3-pyridyl)methyl]-[1,2,4]triazolo[4,3-c]pyrimidin-3-one] | 100 | 1.26
Cc1cc(-c2c(-c3ccc(F)cc3F)nc(N)n3c(=O)n(CCC(F)(F)F)nc23)cc(C)n1 [Example 2-34, 5-amino-7-(2,4-difluorophenyl)-8-(2,6-dimethyl-4-pyridyl)-2-(3,3,3-trifluoropropyl)-[1,2,4]triazolo[4,3-c]pyrimidin-3-one] | > 3980 | 15.8
Cc1cc(-c2c(-c3ccccc3)nc(N)n3c(=O)n(Cc4ccc(F)c(=O)[nH]4)nc23)cc(C)n1 [Example 1-8, 5-amino-8-(2,6-dimethyl-4-pyridyl)-2-[(5-fluoro-6-oxo-1H-pyridin-2-yl)methyl]-7-phenyl-[1,2,4]triazolo[4,3-c]pyrimidin-3-one] | 316 | 25.1
Cc1cc(-c2c(-c3ccccc3)nc(N)n3c(=O)n(Cc4ccccc4SC(F)F)nc23)cc(C)n1 [Example 1-16, 5-amino-2-[[2-(difluoromethylsulfanyl)phenyl]methyl]-8-(2,6-dimethyl-4-pyridyl)-7-phenyl-[1,2,4]triazolo[4,3-c]pyrimidin-3-one] | 1 | 0.251
CCC(c1ccc(F)cn1)n1nc2c(-c3cc(C)nc(C)c3)c(-c3ccccc3)nc(N)n2c1=O (single isomer, unassigned) [Example 1-38-iso-2, 5-amino-8-(2,6-dimethyl-4-pyridyl)-2-[1-(5-fluoro-2-pyridyl)propyl]-7-phenyl-[1,2,4]triazolo[4,3-c]pyrimidin-3-one] | > 2000 | 200
Cc1cc(-c2c(-c3ccccc3)nc(N)n3c(=O)n(Cc4ncc(F)cn4)nc23)cc(C)n1 [Example 1-35, 5-amino-8-(2,6-dimethyl-4-pyridyl)-2-[(5-fluoropyrimidin-2-yl)methyl]-7-phenyl-[1,2,4]triazolo[4,3-c]pyrimidin-3-one] | 1000 | 15.8
Cc1cc(-c2c(-c3ccccc3)nc(N)n3c(=O)n(CCO)nc23)cc(C)n1 [Example 2-7, 5-amino-8-(2,6-dimethyl-4-pyridyl)-2-(2-hydroxyethyl)-7-phenyl-[1,2,4]triazolo[4,3-c]pyrimidin-3-one] | 1000 | 100
Cc1cc(-c2c(-c3ccccc3)nc(N)n3c(=O)n(CC4CCCS(=O)(=O)C4)nc23)cc(C)n1 (single isomer, unassigned) [Example 2-89-iso-1, 5-amino-8-(2,6-dimethyl-4-pyridyl)-2-[(1,1-dioxothian-3-yl)methyl]-7-phenyl-[1,2,4]triazolo[4,3-c]pyrimidin-3-one] | 398 | 10
Cc1cc(-c2c(-c3ccccc3)nc(N)n3c(=O)n(CCNC(C)c4nnc5ncccn45)nc23)cc(C)n1 (centres unmarked) [Example 1-92, 5-amino-8-(2,6-dimethyl-4-pyridyl)-7-phenyl-2-[2-[1-([1,2,4]triazolo[4,3-a]pyrimidin-3-yl)ethylamino]ethyl]-[1,2,4]triazolo[4,3-c]pyrimidin-3-one] | > 3980 | 126
Cc1cc(-c2c(-c3ccccc3)nc(N)n3c(=O)n(CC(N)=O)nc23)cc(C)n1 [Example 2-22, 2-[5-amino-8-(2,6-dimethyl-4-pyridyl)-3-oxo-7-phenyl-[1,2,4]triazolo[4,3-c]pyrimidin-2-yl]acetamide] | 1000 | 200
Cc1cc(-c2c(-c3ccccc3)nc(N)n3c(=O)n(C(CN)Cc4ccc(F)cc4F)nc23)cc(C)n1 (centres unmarked) [Example 1-100, 5-amino-2-[1-(aminomethyl)-2-(2,4-difluorophenyl)ethyl]-8-(2,6-dimethyl-4-pyridyl)-7-phenyl-[1,2,4]triazolo[4,3-c]pyrimidin-3-one] | 316 | 158
Cc1cc(-c2c(-c3ccccc3)nc(N)n3c(=O)n(C[C@H]4COCCN4C)nc23)cc(C)n1 [Example 2-77, 5-amino-8-(2,6-dimethyl-4-pyridyl)-2-[[(3S)-4-methylmorpholin-3-yl]methyl]-7-phenyl-[1,2,4]triazolo[4,3-c]pyrimidin-3-one] | 398 | 3.16
Cc1cc(-c2c(-c3ccccc3)nc(N)n3c(=O)n(CC4CCCCO4)nc23)cc(CO)n1 (single isomer, unassigned) [Example 2-91-iso-2, 5-amino-8-[2-(hydroxymethyl)-6-methyl-4-pyridyl]-7-phenyl-2-(tetrahydropyran-2-ylmethyl)-[1,2,4]triazolo[4,3-c]pyrimidin-3-one] | 251 | 1.58
Cc1cc(-c2c(-c3ccccc3)nc(N)n3c(=O)n(CCC(F)(F)F)nc23)cc(Cl)n1 [Example 2-48, 5-amino-8-(2-chloro-6-methyl-4-pyridyl)-7-phenyl-2-(3,3,3-trifluoropropyl)-[1,2,4]triazolo[4,3-c]pyrimidin-3-one] | 6.31 | 0.794
COC(=O)C1(Cn2nc3c(-c4cc(C)nc(C)c4)c(-c4ccccc4)nc(N)n3c2=O)CCCC1 [Example 2-29, methyll-[[5-amino-8-(2,6-dimethyl-4-pyridyl)-3-oxo-7-phenyl-[1,2,4]triazolo[4,3-c]pyrimidin-2-yl]methyl]cyclopentanecarboxylate] | 126 | 0.501
COC(=O)CCn1nc2c(-c3cc(C)nc(C)c3)c(-c3ccccc3)nc(N)n2c1=O [Example 2-15, methyl 3-[5-amino-8-(2,6-dimethyl-4-pyridyl)-3-oxo-7-phenyl-[1,2,4]triazolo[4,3-c]pyrimidin-2-yl]propanoate] | 501 | 5.01
Cc1cc(-c2c(-c3ccccc3)nc(N)n3c(=O)n(C4Cc5ccc(N)cc5C4)nc23)cc(C)n1 (centres unmarked) [Example 1-104, 5-amino-2-(5-aminoindan-2-yl)-8-(2,6-dimethyl-4-pyridyl)-7-phenyl-[1,2,4]triazolo[4,3-c]pyrimidin-3-one] | 100 | 2
Cc1cc(-c2c(-c3ccccc3)nc(N)n3c(=O)n(Cc4ccc(Cl)cn4)nc23)cc(CO)n1 [Example 1-55, 5-amino-2-[(5-chloro-2-pyridyl)methyl]-8-[2-(hydroxymethyl)-6-methyl-4-pyridyl]-7-phenyl-[1,2,4]triazolo[4,3-c]pyrimidin-3-one] | 501 | 1.58
Cc1cc(-c2c(-c3ccccc3)nc(N)n3c(=O)n(CCc4ccccc4)nc23)cc(C(F)(F)F)n1 [Example 1-88, 5-amino-8-[2-methyl-6-(trifluoromethyl)-4-pyridyl]-7-phenyl-2-(2-phenylethyl)-[1,2,4]triazolo[4,3-c]pyrimidin-3-one] | 100 | 12.6

Source: patent US12528815B2, “5-amino-8-(4-pyridyl)-[1,2,4]triazolo[4,3-c]pyrimidin-3-one compounds for use against cancer” (Nxera Pharma UK Limited, priority 2020, dated 2026)
